{"source": "patent US10800714B2", "about": "“Low VOC and low odor aromatic oil” (Dow Global Technologies LLC, priority 2015, dated 2020)", "format_in_all_cases": "physicochemical", "key": {"[1]": {"assay": "NBPT mixture storage at −20° C. for 4 weeks (crystal formation, flowability)", "settings": "solution free of crystal or flowable at −20° C.", "method": "Recipe: 20 wt % NBPT/80 wt % Solvent\n(§1) Each NBPT mixture is stored at three temperatures, room temperature (20-25° C.), 55° C., and −20° C. for 4 weeks to evaluate storage stability at elevated, ambient, and sub-ambient conditions. After 4 weeks of storage, the samples are visually inspected for (1) color, which is an indication of degradation, and (2) crystal formation, which is an indicator of insufficient solvency to carry 20 wt % NBPT.\n(§2) NBPT is considered compatible with a solvent if the mixture remained clear, crystal free, and flowable at −20° C. for four weeks, and has little color (colorless or pale yellow) after four weeks at 55° C."}, "[2]": {"assay": "Solvent vapor pressure at 20° C.", "settings": "neat solvent", "method": "• (1) a vapor pressure of less than or equal to (≤) 0.01 millimeters of mercury (mmHg) at 20° C. as measured by ASTM E1719, • (2) a flash point equal to or greater than (≥) 200° F. (93° C.) as measured by ASTM D3278, • (3) a viscosity less than or equal to (≤) 200 centipoise (cP) at 25° C. as measured by ASTM D445, • (4) a hydroxyl number from 100 to 1,000 as measured by ASTM D4274, and • (5) a VOC content less of than or equal to (≤) 50 weight percent (wt %) as measured by ASTM D6886.\nIn one embodiment, the fertilizer stabilizer compositions of this invention have a low vapor pressure, typically less than or equal to (≤) 0.01 millimeters of mercury (mmHg), or ≤0.001 mmHg, or ≤0.0001 mmHg, at 20° C. as measured by ASTM E1719.\nOnly two glycol ethers are identified as compatible with NBPT: methyl CARBITOL™ (as described in WO 2014/028767 A1 and WO 2008/000196 A1, an alkyl glycol ether not of Formula 1, and a comparative sample) and DOWANOL™ EPh6 (a mixture of glycol ethers comprising at least two structures of Formula 1, and an inventive sample). […]"}, "[3]": {"assay": "Compatibility of NBPT with solvent (storage study overall)", "settings": "clear, crystal free, flowable at −20° C. for four weeks and little color after four weeks at 55° C.; 20 wt % NBPT", "method": "as §1, §2"}}}
{"compound": "OCCOc1ccccc1", "note": "[DOWANOL EPh]", "values": [{"measurement": "Solvency to carry 20 wt % NBPT", "setting": "[1]", "result": "not able to produce a NBPT mixture that provides sufficient solvency to carry 20 wt % NBPT"}]}
{"compound": "OCCOCCOc1ccccc1", "note": "[DOWANOL DiEPh]", "values": [{"measurement": "Solvency to carry 20 wt % NBPT", "setting": "[1]", "result": "not able to produce a NBPT mixture that provides sufficient solvency to carry 20 wt % NBPT"}]}
{"compound": "COCCOCCO", "note": "[Methyl CARBITOL]", "values": [{"measurement": "Vapor pressure mmHg at 20° C.", "setting": "[2]", "result": 0.23, "unit": "mmHg"}, {"measurement": "Vapor pressure mmHg at 20° C.", "setting": "[2]; listed as methyl CARBITOL™", "result": "> 0.1", "unit": "mmHg"}, {"measurement": "Compatibility with NBPT", "setting": "[3]", "result": "compatible"}]}
{"compound": "CC(O)COc1ccccc1", "note": "(stereo not drawn) [DOWANOL PPh]", "values": [{"measurement": "Solvency to carry 20 wt % NBPT", "setting": "[1]", "result": "not able to produce a NBPT mixture that provides sufficient solvency to carry 20 wt % NBPT"}]}
